Measured values: PubChem BioAssay (NCI)
Values joined by “and” are separate entries in the source; they are usually repeats but may differ in a detail not shown here. Identical values can stand only once.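 How tested: cells in 96-well plates exposed to compound for 48 hours at five concentrations. GI50 = concentration required for 50% inhibition of growth. Definition used: TGI = concentration required for complete inhibition of growth.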

Key:
Assay in all cases: DTP human tumour cell line panel, 48 h
SW-620 colon = tested on: SW-620 colon
ACHN renal = tested on: ACHN renal
OVCAR-5 ovarian = tested on: OVCAR-5 ovarian
HS 578T breast = tested on: HS 578T breast
HCC-2998 colon = tested on: HCC-2998 colon
LOX IMVI melanoma = tested on: LOX IMVI melanoma
NCI-H23 lung = tested on: NCI-H23 lung
A549 NSCLC = tested on: A549 NSCLC
M14 melanoma = tested on: M14 melanoma
SK-OV-3 ovarian = tested on: SK-OV-3 ovarian

| Structure (SMILES) | GI50 (SW-620 colon) | TGI (SW-620 colon) | GI50 (ACHN renal) | TGI (ACHN renal) [µM] | GI50 (OVCAR-5 ovarian) | TGI (OVCAR-5 ovarian) | GI50 (HS 578T breast) | TGI (HS 578T breast) | GI50 (HCC-2998 colon) | TGI (HCC-2998 colon) | GI50 (LOX IMVI melanoma) | TGI (LOX IMVI melanoma) | GI50 (NCI-H23 lung) | TGI (NCI-H23 lung) | GI50 (A549 NSCLC) | TGI (A549 NSCLC) | GI50 (M14 melanoma) | TGI (M14 melanoma) | GI50 (SK-OV-3 ovarian) [µM] | TGI (SK-OV-3 ovarian) [µM] |
| --- | --- | --- | --- | --- | --- | --- | --- | --- | --- | --- | --- | --- | --- | --- | --- | --- | --- | --- | --- | --- |
| Cc1cc(Nc2ncnc3ccc(NC4=NC(C)(C)CO4)cc23)ccc1Oc1ccn2ncnc2c1 | 20.5 µM and > 10 µM | 41.2 µM and > 10 µM | 4.48 µM and 9.46 µM | > 100 | 17.1 µM and > 10 µM | 62.9 µM and > 10 µM | 15.2 µM and > 10 µM | 62.4 µM and > 10 µM | 16.5 µM and > 10 µM | 30.9 µM and > 10 µM | 13.4 µM and > 10 µM | 31.3 µM and > 10 µM | 17 µM and > 10 µM | 41.7 µM and > 10 µM | 14.9 µM and > 10 µM | 82.9 µM and > 10 µM | 14.6 µM and > 10 µM | 33.1 µM and > 10 µM | 0.0526 | > 94.1 |
| CC(=O)OC1CC2(O)C3CCC4CC(O)CCC4(C)C3CCC2(C)C1C1=CC(=O)OC1 (stereo not drawn) | – | 1.41 µM | – | 0.147 | – | 0.451 µM | – | > 100 µM | – | 0.39 µM | – | 0.209 µM | – | 0.137 µM | – | 0.0323 µM | – | 0.367 µM | – | 0.642 |
| C/C(=N\N=C(/[Se])N1CC2CCC(CC2)C1)c1ccccn1 | – | 0.608 µM | – | 1.78 | – | 2.51 µM | – | 7.77 µM | – | 1.5 µM | – | 0.64 µM | – | 1.57 µM | – | 3.03 µM | – | 0.701 µM | – | 2.09 |
| COc1cc(/C=C2\CCC(CN(C)C)C2=O)ccc1OC(=O)c1ccccc1 (stereo not drawn) | – | 17.8 µM | – | 28.7 | – | 33.8 µM | – | 74.8 µM | – | 30.1 µM | – | 13 µM | – | 36.7 µM | – | 51.5 µM | – | 22.9 µM | – | 52.4 |
| N#CC1=C(N)NC(=O)NC12Nc1ccccc1S2 (stereo not drawn) | 28.8 µM | > 72.6 µM | 32.2 µM | > 100 | 27 µM | > 72.3 µM | 25.5 µM | > 70.4 µM | 35.5 µM | > 100 µM | 22.9 µM | > 59.2 µM | 19.3 µM | 47.7 µM | 4.27 µM | > 40.4 µM | 19.7 µM | 42.5 µM | 30.3 | > 70.7 |
| Cn1cc(-c2cnc3ccc4ccc(CS(=O)(=O)NCc5ccccn5)cc4c(=O)c3c2)cn1 | 15.6 µM | > 100 µM | 16.4 µM | > 100 | 29.5 µM | > 100 µM | 14 µM | > 100 µM | 13.4 µM | 27.9 µM | 13.5 µM | 35.3 µM | 16.2 µM | > 84.7 µM | 25.2 µM | > 100 µM | 11.9 µM | 33.6 µM | 26.5 | > 100 |
| O=C(Cc1cccc(OC(F)(F)F)c1)Nc1ccc(CCCCc2nnc(NC(=O)Cc3ccccn3)s2)nn1 | 40.4 µM | > 100 µM | 20.9 µM | > 100 | > 100 µM | > 100 µM | 13.8 µM | 40.2 µM | 52.4 µM | > 100 µM | 25.9 µM | > 100 µM | 13.1 µM | 45.8 µM | – | – | 36.3 µM | > 100 µM | 11.6 | 25.1 |
